Our source for the target mRNA inhibition values is the OligoGym collection.

Several values for one entry are separate records, joined by “and”; a condition that tells them apart may be missing. Equal entries are not always repeated. After the bases stand the sugars from the 5' end (letter, count) and the backbone: PS all phosphorothioate, else s phosphorothioate and o phosphodiester by linkage. HELM strings list units from the 5' end as sugar, base in round brackets, then linkage (d deoxyribose, r ribose, m 2'-O-methyl, p phosphodiester). Methylation of C is not given here. [moe] = 2'-O-(2-methoxyethyl) (MOE); [cEt] = constrained ethyl (cEt); [sp] = phosphorothioate linkage; e = 2'-O-(2-methoxyethyl) (MOE); k = constrained ethyl (cEt); d = 2'-deoxy (DNA)

One data set has as its target HBV. The following applies: ASO, HepG2, 0.07 µM.
On to “RNA1{[moe](T)[sp].[moe](C)[sp].[moe](C)[sp].d(G)[sp].d(C)[sp].d(A)[sp].d(G)[sp].d(T)[sp].d(A)[sp].d(T)[sp].d(G)[sp].d(G)[sp].[moe](A)[sp].[moe](T)[sp].[moe](C)[sp].[moe](G)}$$$$V2.0”, for which the target mRNA inhibition was 65% and 72%.
The same measure, in the same setting: in the case of “RNA1{[moe](T)[sp].[moe](G)[sp].[moe](A)[sp].[moe](A)[sp].[moe](G)[sp].d(C)[sp].d(G)[sp].d(A)[sp].d(A)[sp].d(G)[sp].d(T)[sp].d(G)[sp].d(C)[sp].d(A)[sp].[moe](C)[sp].[moe](A)[sp].[moe](C)}$$$$V2.0” it was 13% and 38%; in that of “RNA1{[moe](T)[sp].[moe](G)[sp].[moe](A)[sp].[moe](G)[sp].[moe](G)[sp].d(C)[sp].d(A)[sp].d(T)[sp].d(A)[sp].d(G)[sp].d(C)[sp].d(A)[sp].d(G)[sp].d(C)[sp].[moe](A)[sp].[moe](G)[sp].[moe](G)}$$$$V2.0”, 45% and 44%.
The same measure, in the same setting: next, “RNA1{[moe](T)[sp].[moe](G)[sp].[moe](A)[sp].d(A)[sp].d(G)[sp].d(C)[sp].d(G)[sp].d(A)[sp].d(A)[sp].d(G)[sp].d(T)[sp].d(G)[sp].[moe](C)[sp].[moe](A)[sp].[moe](C)[sp].[moe](A)[sp].[moe](C)}$$$$V2.0”: 74% and 60%; “RNA1{[moe](T)[sp].[moe](G)[sp].[moe](A)[sp].d(G)[sp].d(G)[sp].d(C)[sp].d(A)[sp].d(T)[sp].d(A)[sp].d(G)[sp].d(C)[sp].d(A)[sp].[moe](G)[sp].[moe](C)[sp].[moe](A)[sp].[moe](G)}$$$$V2.0”: 60% and 49%.
Same read-out and setting: next, “RNA1{[moe](T)[sp].[moe](G)[sp].[moe](C)[sp].[moe](A)[sp].[moe](G)[sp].[moe](A)[sp].d(G)[sp].d(G)[sp].d(T)[sp].d(G)[sp].d(A)[sp].d(A)[sp].d(G)[sp].d(C)[sp].d(G)[sp].[moe](A)[sp].[moe](A)}$$$$V2.0”: 74% and 63%; “RNA1{[moe](T)[sp].[moe](G)[sp].[moe](C)[sp].[moe](A)[sp].[moe](G)[sp].d(A)[sp].d(G)[sp].d(G)[sp].d(T)[sp].d(G)[sp].d(A)[sp].d(A)[sp].d(G)[sp].d(C)[sp].[moe](G)[sp].[moe](A)}$$$$V2.0”: 61% and 52%.
On to “RNA1{[moe](T)[sp].[moe](G)[sp].d(A)[sp].d(A)[sp].d(G)[sp].d(C)[sp].d(G)[sp].d(A)[sp].d(A)[sp].d(G)[sp].d(T)[sp].[moe](G)[sp].[moe](C)[sp].[moe](A)[sp].[moe](C)[sp].[moe](A)}$$$$V2.0”, for which the target mRNA inhibition is 69% and 54%.
Consider “RNA1{[moe](T)[sp].[moe](G)[sp].d(C)[sp].d(A)[sp].d(G)[sp].d(A)[sp].d(G)[sp].d(G)[sp].d(T)[sp].d(G)[sp].d(A)[sp].[moe](A)[sp].[moe](G)[sp].[moe](C)[sp].[moe](G)[sp].[moe](A)}$$$$V2.0”, for which the target mRNA inhibition is 46% and 36%.
Same read-out and setting: next, “RNA1{[moe](T)[sp].[moe](G)[sp].d(G)[sp].d(A)[sp].d(G)[sp].d(C)[sp].d(C)[sp].d(A)[sp].d(C)[sp].d(C)[sp].d(A)[sp].[moe](G)[sp].[moe](C)[sp].[moe](A)[sp].[moe](G)[sp].[moe](G)}$$$$V2.0”: 29% and 41%; “RNA1{[moe](T)[sp].[moe](T)[sp].[moe](A)[sp].[moe](T)[sp].[moe](G)[sp].d(C)[sp].d(C)[sp].d(T)[sp].d(A)[sp].d(C)[sp].d(A)[sp].d(G)[sp].d(C)[sp].d(C)[sp].[moe](T)[sp].[moe](C)}$$$$V2.0”: 53% and 42%; “RNA1{[moe](T)[sp].[moe](T)[sp].[moe](A)[sp].d(T)[sp].d(G)[sp].d(C)[sp].d(C)[sp].d(T)[sp].d(A)[sp].d(C)[sp].d(A)[sp].d(G)[sp].[moe](C)[sp].[moe](C)[sp].[moe](T)[sp].[moe](C)[sp].[moe](C)}$$$$V2.0”: 61% and 54%.
As to “RNA1{[moe](T)[sp].[moe](T)[sp].[moe](A)[sp].d(T)[sp].d(G)[sp].d(C)[sp].d(C)[sp].d(T)[sp].d(A)[sp].d(C)[sp].d(A)[sp].d(G)[sp].d(C)[sp].[cEt](C)[sp].[cEt](T)[sp].[cEt](C)}$$$$V2.0”, the target mRNA inhibition is 37% and 53%.
Still for that read-out and setting: in the case of “RNA1{[moe](T)[sp].[moe](T)[sp].[moe](C)[sp].[moe](C)[sp].[moe](G)[sp].d(C)[sp].d(A)[sp].d(G)[sp].d(T)[sp].d(A)[sp].d(T)[sp].d(G)[sp].d(G)[sp].d(A)[sp].[moe](T)[sp].[moe](C)[sp].[moe](G)}$$$$V2.0” it was 65% and 59%; in that of “RNA1{[moe](T)[sp].[moe](T)[sp].[moe](C)[sp].[moe](C)[sp].d(G)[sp].d(C)[sp].d(A)[sp].d(G)[sp].d(T)[sp].d(A)[sp].d(T)[sp].d(G)[sp].d(G)[sp].[moe](A)[sp].[moe](T)[sp].[moe](C)}$$$$V2.0”, 43% and 49%; in that of “RNA1{[moe](T)[sp].[moe](T)[sp].[moe](C)[sp].d(C)[sp].d(G)[sp].d(C)[sp].d(A)[sp].d(G)[sp].d(T)[sp].d(A)[sp].d(T)[sp].d(G)[sp].[moe](G)[sp].[moe](A)[sp].[moe](T)[sp].[moe](C)}$$$$V2.0”, 53% and 50%.
On the same count and under the same terms, in the case of “RNA1{[moe](T)[sp].[moe](T)[sp].[moe](C)[sp].d(C)[sp].d(G)[sp].d(C)[sp].d(A)[sp].d(G)[sp].d(T)[sp].d(A)[sp].d(T)[sp].d(G)[sp].d(G)[sp].[cEt](A)[sp].[cEt](T)[sp].[cEt](C)}$$$$V2.0” it was 60% and 68%; in that of “RNA1{[moe](T)[sp].[moe](T)[sp].[moe](T)[sp].[moe](A)[sp].d(T)[sp].d(G)[sp].d(C)[sp].d(C)[sp].d(T)[sp].d(A)[sp].d(C)[sp].d(A)[sp].d(G)[sp].[moe](C)[sp].[moe](C)[sp].[moe](T)}$$$$V2.0”, 51% and 38%; in that of “RNA1{[moe](T)[sp].[moe](T)[sp].[moe](T)[sp].d(A)[sp].d(T)[sp].d(G)[sp].d(C)[sp].d(C)[sp].d(T)[sp].d(A)[sp].d(C)[sp].d(A)[sp].[moe](G)[sp].[moe](C)[sp].[moe](C)[sp].[moe](T)[sp].[moe](C)}$$$$V2.0”, 62% and 49%.
Consider “RNA1{[moe](T)[sp].[moe](T)[sp].d(A)[sp].d(T)[sp].d(G)[sp].d(C)[sp].d(C)[sp].d(T)[sp].d(A)[sp].d(C)[sp].d(A)[sp].[moe](G)[sp].[moe](C)[sp].[moe](C)[sp].[moe](T)[sp].[moe](C)[sp].[moe](C)}$$$$V2.0”, for which the target mRNA inhibition was 56% and 57%.
On the same count and under the same terms, in the case of “RNA1{[moe](T)[sp].[moe](T)[sp].d(A)[sp].d(T)[sp].d(G)[sp].d(C)[sp].d(C)[sp].d(T)[sp].d(A)[sp].d(C)[sp].d(A)[sp].[moe](G)[sp].[moe](C)[sp].[moe](C)[sp].[moe](T)[sp].[moe](C)}$$$$V2.0” it was 44% and 46%; in that of “RNA1{[moe](T)[sp].[moe](T)[sp].d(C)[sp].d(C)[sp].d(G)[sp].d(C)[sp].d(A)[sp].d(G)[sp].d(T)[sp].d(A)[sp].d(T)[sp].[moe](G)[sp].[moe](G)[sp].[moe](A)[sp].[moe](T)[sp].[moe](C)[sp].[moe](G)}$$$$V2.0”, 67% and 72%.

The target of another data set is KRAS. The following applies: ASO, A431, 0.037 µM.
Consider AATGGTGAATATCTTC (sugars k3 d10 k3, PS), for which the target mRNA inhibition worked out at 58%.

The same data set, now with this note: ASO, A431, 2 µM.
AAAAAAAAATTAATGT (sugars k3 d10 k3, PS) displayed a target mRNA inhibition of 16%.
For the substance AAAAAAATTAATGTCT (sugars k3 d10 k3, PS), the target mRNA inhibition was found to be 7%.
On the same count and under the same terms, next, AAAAGTGTTTATGCAA (sugars k3 d10 k3, PS): 32%; AAAGTGTTTATGCAAT (sugars k3 d10 k3, PS): 29%; AAATTAATGTCTTGGC (sugars k3 d10 k3, PS): 47%.
With AACAAATGCTAATAAT (sugars k3 d10 k3, PS), the target mRNA inhibition came out at 0%.
Substance AACCAGTGTTAAGAGA (sugars k3 d10 k3, PS) displayed a target mRNA inhibition of 35%.
Same read-out and setting: next, AATAATCCCCATTTCA (sugars k3 d10 k3, PS): 16%; AATGGTGAATATCTTC (sugars k3 d10 k3, PS): 50%.
On the same count and under the same terms, in the case of ACAAATGCTAATAATT (sugars k3 d10 k3, PS) it was 1%; in that of “ACCAGTGTTAAGAGAA (sugars kdddddddddkekeke, PS)”, 50%.
With “ACCAGTGTTAAGAGAA (sugars kkkdddddddddkeke, PS)”, the target mRNA inhibition stood at 40%.
Same read-out and setting: in the case of “ACCAGTGTTAAGAGAA (sugars kkkddddddddkekek, PS)” it was 51%; in that of “ACCATTCAAAGTTCAC (sugars kkdddddddddkekek, PS)”, 36%.
On the same count and under the same terms, next, “ACCATTCAAAGTTCAC (sugars kkkddddddddkdkdk, PS)”: 12%; ACTTGAAAAGTGTTTA (sugars k3 d10 k3, PS): 16%; ACTTGTACTAGTATGC (sugars k3 d10 k3, PS): 51%.
The same measure, in the same setting: next, “AGATTGTGCTGAGCTT (sugars kkdddddddddkekek, PS)”: 38%.
“AGATTGTGCTGAGCTT (sugars kkddddddddkekekk, PS)” displayed a target mRNA inhibition of 0%.
The same measure, in the same setting: in the case of “AGATTGTGCTGAGCTT (sugars kkkdddddddddkeke, PS)” it was 43%.
The same measure, in the same setting: in the case of “AGATTGTGCTGAGCTT (sugars kkkddddddddkekek, PS)” it was 26%; in that of AGCTATTAGGAGTCTT (sugars k3 d10 k3, PS), 35%; in that of “AGGAGTCTTTATAGTA (sugars k3 d9 k3 e1, PS)”, 6%.
Still for that read-out and setting: in the case of “AGGAGTCTTTATAGTA (sugars kdddddddddkekeke, PS)” it was 24%.
The substance “AGGAGTCTTTATAGTA (sugars kkkdddddddddkeke, PS)” yielded a target mRNA inhibition of 31%.
In turn, AGGCAAGATGACACTA (sugars k3 d10 k3, PS) showed a target mRNA inhibition of 21%.
The same measure, in the same setting: in the case of AGGCATTGCTAGTTCA (sugars k3 d10 k3, PS) it was 55%.

The same data set, now with this note: ASO, A431, 5 µM.
For the substance AATGGTGAATATCTTC (sugars k3 d10 k3, PS), the target mRNA inhibition is 97% and 90%.

Staying with this data set, now noted: ASO, NCI-H460, 0.037 µM.
The substance AATGGTGAATATCTTC (sugars k3 d10 k3, PS) came in with a target mRNA inhibition of 33.3%.
